The text below walks through data of PMC12121777 (PLOS One, 2025).

≈ marks a conversion by molar mass, not a printed value. Where two headings read alike, the source gives them in different places.

Assay [1] relates to polyresistant Mtb strains. The settings on record: polyresistant Mtb strains (e.g., INH, STR, EMB); cited from earlier work.
A further assay deals with Mtb Praha 1. The assay is described as follows: microbe, parasite or virus in culture. Type of assay: cell-based. Particulars: Mycobacterium tuberculosis, read-out: MIC Mtb Praha 1.
The subject of another assay is Mtb Praha 4. Nature of the assay: microbe, parasite or virus in culture. Format: cell-based. Particulars: Mycobacterium tuberculosis, read-out: MIC Mtb Praha 4.
For the next assay, the system named is Mtb Praha 131. The assay is described as follows: microbe, parasite or virus in culture. Format: cell-based. Particulars: Mycobacterium tuberculosis, read-out: MIC Mtb Praha 131.
Another assay concerns Mtb 234/2005. The assay is described as follows: microbe, parasite or virus in culture. Type of assay: cell-based. Particulars: Mycobacterium tuberculosis, read-out: MIC Mtb 234/2005.
In another assay the test system is Mtb 9449/2007. Nature of the assay: microbe, parasite or virus in culture. Format: cell-based. Particulars: Mycobacterium tuberculosis, read-out: MIC Mtb 9449/2007.
A further assay concerns Mtb 7357/1998. The assay is described as follows: microbe, parasite or virus in culture. Particulars: Mycobacterium tuberculosis, read-out: MIC Mtb 7357/1998. Type of assay: cell-based.
A further assay concerns Mtb 8666/2010. Nature of the assay: microbe, parasite or virus in culture. Particulars: Mycobacterium tuberculosis, read-out: MIC Mtb 8666/2010. Type of assay: cell-based.

`CCCCCCCCCCCCCCCc1nnc(-c2ccncc2)o1` [II]: the “inhibitory concentration (MIC)” value in assay [1] is not below 2.59 µM.

Regarding `CCCCCCCCCCCCCCCCCc1nnc(-c2ccncc2)o1` [III], the “inhibitory concentration (MIC)” value in assay [1] is not below 2.59 µM.

`COc1ccc(CNc2nnc(-c3cc([N+](=O)[O-])cc([N+](=O)[O-])c3)s2)cc1` [Compound 8b, 5-(3,5-Dinitrophenyl)-N-(4-methoxybenzyl)-1,3,4-thiadiazol-2-amine]: the MIC in the assay with Mtb Praha 1 (PRAHA1, 336 h) is not above 0.03 µM; in the assay on Mtb Praha 1 (PRAHA1, 504 h) it was not above 0.03 µM; in the assay on Mtb Praha 4 (PRAHA4, 336 h) it was not above 0.03 µM; in the assay with Mtb Praha 4 (PRAHA4, 504 h) it was not above 0.03 µM; in the assay on Mtb Praha 131 (PRAHA131, 336 h), not above 0.03 µM; with Mtb Praha 131 (PRAHA131, 504 h), not above 0.03 µM. The MIC in the assay with Mtb 234/2005 (234/2005, 336 h) is not above 0.03 µM; in the assay on Mtb 234/2005 (234/2005, 504 h), not above 0.03 µM; with Mtb 9449/2007 (9449/2007, 336 h) it was not above 0.03 µM; in the assay with Mtb 9449/2007 (9449/2007, 504 h), not above 0.03 µM; in the assay with Mtb 7357/1998 (7357/1998, 336 h), not above 0.03 µM; in the assay on Mtb 7357/1998 (7357/1998, 504 h) it was not above 0.03 µM. The MIC was not above 0.03 µM with Mtb 8666/2010 (8666/2010, 336 h) and not above 0.03 µM in the assay with Mtb 8666/2010 (8666/2010, 504 h).

Take `CCCCCCNc1nnc(-c2cc([N+](=O)[O-])cc([N+](=O)[O-])c2)o1` [Compound 5f, 5-(3,5-Dinitrophenyl)-N-hexyl-1,3,4-oxadiazol-2-amine]: the MIC in the assay with Mtb Praha 1 (PRAHA1, 336 h) is not above 0.03 µM; in the assay on Mtb Praha 1 (PRAHA1, 504 h) it was not above 0.03 µM; in the assay on Mtb Praha 4 (PRAHA4, 336 h) it was not above 0.03 µM; with Mtb Praha 4 (PRAHA4, 504 h), not above 0.03 µM; in the assay on Mtb Praha 131 (PRAHA131, 336 h), not above 0.03 µM; with Mtb Praha 131 (PRAHA131, 504 h), not above 0.03 µM. For the same compound, the MIC with Mtb 234/2005 (234/2005, 336 h) was not above 0.03 µM; in the assay with Mtb 234/2005 (234/2005, 504 h) it was not above 0.03 µM; with Mtb 9449/2007 (9449/2007, 336 h) it was not above 0.03 µM; in the assay on Mtb 9449/2007 (9449/2007, 504 h), not above 0.03 µM; with Mtb 7357/1998 (7357/1998, 336 h), not above 0.03 µM; with Mtb 7357/1998 (7357/1998, 504 h) it was not above 0.03 µM. Moreover, the MIC is not above 0.03 µM with Mtb 8666/2010 (8666/2010, 336 h) and not above 0.03 µM in the assay on Mtb 8666/2010 (8666/2010, 504 h).

Consider `CCCCCCCNc1nnc(-c2cc([N+](=O)[O-])cc([N+](=O)[O-])c2)o1` [Compound 5g, 5-(3,5-Dinitrophenyl)-N-heptyl-1,3,4-oxadiazol-2-amine], for which the MIC is 0.06 µM (≈ 0.021 µg/mL) in the assay on Mtb Praha 1 (PRAHA1, 336 h); 0.06 µM (≈ 0.021 µg/mL) in the assay with Mtb Praha 1 (PRAHA1, 504 h); 0.06 µM (≈ 0.021 µg/mL) with Mtb Praha 4 (PRAHA4, 336 h); 0.06 µM (≈ 0.021 µg/mL) in the assay on Mtb Praha 4 (PRAHA4, 504 h); 0.06 µM (≈ 0.021 µg/mL) in the assay with Mtb Praha 131 (PRAHA131, 336 h); 0.06 µM (≈ 0.021 µg/mL) with Mtb Praha 131 (PRAHA131, 504 h). Moreover, the MIC in the assay with Mtb 234/2005 (234/2005, 336 h) was 0.06 µM (≈ 0.021 µg/mL); in the assay on Mtb 234/2005 (234/2005, 504 h) it was 0.06 µM (≈ 0.021 µg/mL); in the assay on Mtb 9449/2007 (9449/2007, 336 h) it was not above 0.03 µM; in the assay on Mtb 9449/2007 (9449/2007, 504 h), 0.06 µM (≈ 0.021 µg/mL); in the assay on Mtb 7357/1998 (7357/1998, 336 h), 0.06 µM (≈ 0.021 µg/mL); in the assay on Mtb 7357/1998 (7357/1998, 504 h), 0.06 µM (≈ 0.021 µg/mL). The MIC is not above 0.03 µM in the assay with Mtb 8666/2010 (8666/2010, 336 h) and 0.06 µM (≈ 0.021 µg/mL) in the assay with Mtb 8666/2010 (8666/2010, 504 h).

With `CCCCCCCCCCNc1nnc(-c2cc([N+](=O)[O-])cc([N+](=O)[O-])c2)o1` [Compound 5j, N-Decyl-5-(3,5-dinitrophenyl)-1,3,4-oxadiazol-2-amine], the MIC stood at 0.25 µM (≈ 0.0979 µg/mL) in the assay with Mtb Praha 1 (PRAHA1, 336 h); 0.5 µM (≈ 0.196 µg/mL) in the assay with Mtb Praha 1 (PRAHA1, 504 h); 0.25 µM (≈ 0.0979 µg/mL) in the assay on Mtb Praha 4 (PRAHA4, 336 h); 0.5 µM (≈ 0.196 µg/mL) in the assay with Mtb Praha 4 (PRAHA4, 504 h); 0.25 µM (≈ 0.0979 µg/mL) in the assay with Mtb Praha 131 (PRAHA131, 336 h); 0.5 µM (≈ 0.196 µg/mL) with Mtb Praha 131 (PRAHA131, 504 h). For the same compound, the MIC in the assay on Mtb 234/2005 (234/2005, 336 h) was 0.25 µM (≈ 0.0979 µg/mL); in the assay on Mtb 234/2005 (234/2005, 504 h) it was 0.5 µM (≈ 0.196 µg/mL); in the assay with Mtb 9449/2007 (9449/2007, 336 h), 0.25 µM (≈ 0.0979 µg/mL); in the assay on Mtb 9449/2007 (9449/2007, 504 h), 0.5 µM (≈ 0.196 µg/mL); in the assay on Mtb 7357/1998 (7357/1998, 336 h), 0.25 µM (≈ 0.0979 µg/mL); in the assay on Mtb 7357/1998 (7357/1998, 504 h), 0.5 µM (≈ 0.196 µg/mL). Further, the MIC in the assay with Mtb 8666/2010 (8666/2010, 336 h) turned out to be 0.25 µM (≈ 0.0979 µg/mL); in the assay with Mtb 8666/2010 (8666/2010, 504 h), 0.5 µM (≈ 0.196 µg/mL).

For the compound `O=[N+]([O-])c1cc(-c2nnc(NCc3ccc(Cl)cc3Cl)o2)cc([N+](=O)[O-])c1` [Compound 7d, N-(2,4-Dichlorobenzyl)-5-(3,5-dinitrophenyl)-1,3,4-oxadiazol-2-amine], the MIC in the assay on Mtb Praha 1 (PRAHA1, 336 h) was 0.125 µM (≈ 0.0513 µg/mL); in the assay with Mtb Praha 1 (PRAHA1, 504 h), 0.125 µM (≈ 0.0513 µg/mL); with Mtb Praha 4 (PRAHA4, 336 h) it was 0.06 µM (≈ 0.0246 µg/mL); in the assay with Mtb Praha 4 (PRAHA4, 504 h) it was 0.125 µM (≈ 0.0513 µg/mL); in the assay with Mtb Praha 131 (PRAHA131, 336 h), 0.125 µM (≈ 0.0513 µg/mL); in the assay with Mtb Praha 131 (PRAHA131, 504 h) it was 0.125 µM (≈ 0.0513 µg/mL). In addition, the MIC in the assay on Mtb 234/2005 (234/2005, 336 h) was determined as 0.06 µM (≈ 0.0246 µg/mL); in the assay on Mtb 234/2005 (234/2005, 504 h), 0.125 µM (≈ 0.0513 µg/mL); in the assay on Mtb 9449/2007 (9449/2007, 336 h), 0.06 µM (≈ 0.0246 µg/mL); in the assay with Mtb 9449/2007 (9449/2007, 504 h), 0.125 µM (≈ 0.0513 µg/mL); in the assay on Mtb 7357/1998 (7357/1998, 336 h), 0.125 µM (≈ 0.0513 µg/mL); in the assay on Mtb 7357/1998 (7357/1998, 504 h) it was 0.125 µM (≈ 0.0513 µg/mL). Also, the MIC was 0.06 µM (≈ 0.0246 µg/mL) in the assay with Mtb 8666/2010 (8666/2010, 336 h) and 0.125 µM (≈ 0.0513 µg/mL) in the assay with Mtb 8666/2010 (8666/2010, 504 h).

`CCCCNc1nnc(-c2cc([N+](=O)[O-])cc([N+](=O)[O-])c2)o1` [Compound 5d, N-Butyl-5-(3,5-dinitrophenyl)-1,3,4-oxadiazol-2-amine]: the MIC in the assay on Mtb Praha 1 (PRAHA1, 336 h) was 1 µM (≈ 0.307 µg/mL); in the assay with Mtb Praha 1 (PRAHA1, 504 h), 1 µM (≈ 0.307 µg/mL); with Mtb Praha 4 (PRAHA4, 336 h), 0.5 µM (≈ 0.154 µg/mL); in the assay on Mtb Praha 4 (PRAHA4, 504 h) it was 1 µM (≈ 0.307 µg/mL); with Mtb Praha 131 (PRAHA131, 336 h), 0.5 µM (≈ 0.154 µg/mL); in the assay with Mtb Praha 131 (PRAHA131, 504 h) it was 1 µM (≈ 0.307 µg/mL). The MIC in the assay on Mtb 234/2005 (234/2005, 336 h) was 0.5 µM (≈ 0.154 µg/mL); in the assay with Mtb 234/2005 (234/2005, 504 h), 1 µM (≈ 0.307 µg/mL); with Mtb 9449/2007 (9449/2007, 336 h), 0.5 µM (≈ 0.154 µg/mL); with Mtb 9449/2007 (9449/2007, 504 h), 0.5 µM (≈ 0.154 µg/mL); in the assay on Mtb 7357/1998 (7357/1998, 336 h) it was 0.5 µM (≈ 0.154 µg/mL); in the assay with Mtb 7357/1998 (7357/1998, 504 h), 1 µM (≈ 0.307 µg/mL). Further, the MIC came to 0.5 µM (≈ 0.154 µg/mL) in the assay with Mtb 8666/2010 (8666/2010, 336 h) and 0.5 µM (≈ 0.154 µg/mL) in the assay with Mtb 8666/2010 (8666/2010, 504 h).
